# Assay results as given in US20030031688A1, “Cosmetic composition with improved skin moisturizing properties” (priority 2001, published 2003).
# Test: Moisture uptake of powder samples in controlled humidity chamber
# Format: physicochemical
# Details: 65% relative humidity at 25° C.
# Method: A mixture of urea and coenzyme Q10 (9:1 Wt./wt.)) was prepared as a dry blend of the raw materials by manually mixing urea (9 parts by weight) and coenzyme Q10 (1 part by weight), with mortar and pestle grinding as necessary, to provide an essentially homogeneous powder. The moisture-absorbing properties were determined based on the amount of moisture uptake over time. For comparison, the moisture-absorbing properties of powder samples of the unblended individual raw materials, i.e., urea alone and coenzyme Q10 alone, were measured.
# The samples were placed in a controlled humidity chamber (65% relative humidity at 25° C.) and the mass of each sample was measured at various time points. The water uptake is reflected by the increase in mass over time.
# The percentage values shown in Table 1 reflect the percentage increase in mass relative to the weight of the starting sample (prior to being placed in the controlled humidity chamber). The expected percentage values for the blend (“Expected”) were calculated on the basis of the fractional contribution of each component alone, as represented by the following equation: Expected %=(0.9×% measured for urea alone)+(0.1×% measured for Q10 alone).
percentage increase in mass relative to the weight of the starting sample (water uptake) (time 5) [%],percentage increase in mass relative to the weight of the starting sample (water uptake) (time 10) [%],percentage increase in mass relative to the weight of the starting sample (water uptake) (time 15) [%],percentage increase in mass relative to the weight of the starting sample (water uptake) (time 30) [%],percentage increase in mass relative to the weight of the starting sample (water uptake) (time 45) [%],percentage increase in mass relative to the weight of the starting sample (water uptake) (time 1 hr) [%],Compound
1.0,0.1,0.5,1.5,2.4,3.1,"COC1=C(OC)C(=O)C(C/C=C(\C)CC/C=C(\C)CC/C=C(\C)CC/C=C(\C)CC/C=C(\C)CC/C=C(\C)CC/C=C(\C)CC/C=C(\C)CC/C=C(\C)CCC=C(C)C)=C(C)C1=O [Product Q10, coenzyme Q10]"
31.0,4.0,5.5,10.6,16.6,22.4,NC(N)=O [Urea]
